Test results as given in PubChem BioAssay (NCI).
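Abbreviation: GI50, concentration required for 50% inhibition of growth. The concentration for full growth arrest is given as TGI.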

Columns and labels:
Experiment in all cases: NCI anticancer screen, dose series, 384-well format
RXF 393 renal = system: RXF 393 renal
T-47D breast = system: T-47D breast
A498 renal = system: A498 renal
IGROV1 ovarian = system: IGROV1 ovarian
TK-10 renal = system: TK-10 renal
UACC-257 melanoma = system: UACC-257 melanoma
NCI/ADR-RES ovarian = system: NCI/ADR-RES ovarian
KM12 colon = system: KM12 colon
SF-268 CNS = system: SF-268 CNS
OVCAR-8 ovarian = system: OVCAR-8 ovarian
HL-60(TB) leukemia = system: HL-60(TB) leukemia
SK-MEL-5 melanoma = system: SK-MEL-5 melanoma
SF-295 CNS = system: SF-295 CNS
MDA-MB-435 melanoma = system: MDA-MB-435 melanoma
HS 578T breast = system: HS 578T breast
CCRF-CEM leukemia = system: CCRF-CEM leukemia
MDA-MB-468 breast = system: MDA-MB-468 breast
SNB-19 CNS = system: SNB-19 CNS
HT29 colon = system: HT29 colon
OVCAR-4 ovarian = system: OVCAR-4 ovarian
K-562 leukemia = system: K-562 leukemia
SK-MEL-28 melanoma = system: SK-MEL-28 melanoma
SF-539 CNS = system: SF-539 CNS
BT-549 breast = system: BT-549 breast
EKVX NSCLC = system: EKVX NSCLC
A549 NSCLC = system: A549 NSCLC
HOP-92 NSCLC = system: HOP-92 NSCLC
UACC-62 melanoma = system: UACC-62 melanoma
SR leukemia = system: SR leukemia
COLO 205 colon = system: COLO 205 colon
786-0 renal = system: 786-0 renal
MCF7 breast = system: MCF7 breast
ACHN renal = system: ACHN renal
DU-145 prostate = system: DU-145 prostate
SW-620 colon = system: SW-620 colon
MALME-3M melanoma = system: MALME-3M melanoma
HCC-2998 colon = system: HCC-2998 colon
SN12C renal = system: SN12C renal
OVCAR-5 ovarian = system: OVCAR-5 ovarian
NCI-H522 lung = system: NCI-H522 lung
NCI-H23 lung = system: NCI-H23 lung
M14 melanoma = system: M14 melanoma
OVCAR-3 ovarian = system: OVCAR-3 ovarian
UO-31 renal = system: UO-31 renal
NCI-H460 NSCLC = system: NCI-H460 NSCLC
LOX IMVI melanoma = system: LOX IMVI melanoma
HCT-15 colon = system: HCT-15 colon
MOLT-4 leukemia = system: MOLT-4 leukemia
RPMI-8226 leukemia = system: RPMI-8226 leukemia
PC-3 prostate = system: PC-3 prostate
HOP-62 NSCLC = system: HOP-62 NSCLC
CAKI-1 renal = system: CAKI-1 renal
SNB-75 CNS = system: SNB-75 CNS
NCI-H322M lung = system: NCI-H322M lung
NCI-H226 lung = system: NCI-H226 lung
MDA-MB-231 breast = system: MDA-MB-231 breast
SK-OV-3 ovarian = system: SK-OV-3 ovarian

COc1cc2c(cc1-c1c(C)noc1C)cc(C)c(=O)n2Cc1ccccn1 was tested, and the GI50 (RXF 393 renal) was 1980 nM, the TGI (RXF 393 renal) was 15.3 µM and the GI50 (T-47D breast) was 313 nM. It also gave a TGI (T-47D breast) of 3.06 µM, a GI50 (A498 renal) of 418 nM and a TGI (A498 renal) of 12.4 µM. For the same compound, the GI50 (IGROV1 ovarian) was 566 nM, the TGI (IGROV1 ovarian) was 3.33 µM and the GI50 (TK-10 renal) was 367 nM. For the same compound, the TGI (TK-10 renal) was 3.81 µM, the GI50 (UACC-257 melanoma) was 373 nM and the TGI (UACC-257 melanoma) was 4.71 µM. The GI50 (NCI/ADR-RES ovarian) was 371 nM, the TGI (NCI/ADR-RES ovarian) was 2470 nM and the GI50 (KM12 colon) was 691 nM. It also gave a TGI (KM12 colon) of 20.3 µM, a GI50 (SF-268 CNS) of 2010 nM and a TGI (SF-268 CNS) of 11.3 µM. The GI50 (OVCAR-8 ovarian) was 430 nM, the TGI (OVCAR-8 ovarian) was 9.45 µM and the GI50 (HL-60(TB) leukemia) was 118 nM. The TGI (HL-60(TB) leukemia) was 255 nM, the GI50 (SK-MEL-5 melanoma) was 527 nM and the TGI (SK-MEL-5 melanoma) was 2380 nM. The GI50 (SF-295 CNS) was 1750 nM, the TGI (SF-295 CNS) was 24.9 µM and the GI50 (MDA-MB-435 melanoma) was 1010 nM. For the same compound, the TGI (MDA-MB-435 melanoma) was 2420 nM, the GI50 (HS 578T breast) was 192 nM and the TGI (HS 578T breast) was 671 nM. For the same compound, the GI50 (CCRF-CEM leukemia) was 338 nM, the TGI (CCRF-CEM leukemia) was 1650 nM and the GI50 (MDA-MB-468 breast) was 226 nM. The TGI (MDA-MB-468 breast) was 693 nM, the GI50 (SNB-19 CNS) was 1130 nM and the TGI (SNB-19 CNS) was 23.6 µM. It also gave a GI50 (HT29 colon) of 376 nM, a TGI (HT29 colon) of 5.68 µM and a GI50 (OVCAR-4 ovarian) of 188 nM. The TGI (OVCAR-4 ovarian) was 586 nM, the GI50 (K-562 leukemia) was 448 nM and the TGI (K-562 leukemia) was 2780 nM. The GI50 (SK-MEL-28 melanoma) was 628 nM, the TGI (SK-MEL-28 melanoma) was 6.77 µM and the GI50 (SF-539 CNS) was 805 nM. For the same compound, the TGI (SF-539 CNS) was 7.54 µM, the GI50 (BT-549 breast) was 262 nM and the TGI (BT-549 breast) was 1680 nM. It also gave a GI50 (EKVX NSCLC) of 4.54 µM, a TGI (EKVX NSCLC) greater than 100 µM and a GI50 (A549 NSCLC) of 557 nM. It also gave a TGI (A549 NSCLC) of 18.3 µM, a GI50 (HOP-92 NSCLC) of 234 nM and a TGI (HOP-92 NSCLC) of 4.54 µM. The GI50 (UACC-62 melanoma) was 190 nM, the TGI (UACC-62 melanoma) was 1440 nM and the GI50 (SR leukemia) was 140 nM. For the same compound, the TGI (SR leukemia) was 1150 nM, the GI50 (COLO 205 colon) was 498 nM and the TGI (COLO 205 colon) was 13.3 µM. The GI50 ([…]-0 renal) was 812 nM, the TGI (786-0 renal) was 19.2 µM and the GI50 (MCF7 breast) was 257 nM. The TGI (MCF7 breast) was 2480 nM, the GI50 (ACHN renal) was 1050 nM and the TGI (ACHN renal) was greater than 100 µM. For the same compound, the GI50 (DU-145 prostate) was 6.45 µM, the TGI (DU-145 prostate) was greater than 100 µM and the GI50 (SW-620 colon) was 1680 nM. The TGI (SW-620 colon) was 14.4 µM, the GI50 (MALME-3M melanoma) was 274 nM and the TGI (MALME-3M melanoma) was 2180 nM. The GI50 (HCC-2998 colon) was 324 nM, the TGI (HCC-2998 colon) was 1410 nM and the GI50 (SN12C renal) was 2180 nM. For the same compound, the TGI (SN12C renal) was 21.5 µM, the GI50 (OVCAR-5 ovarian) was 496 nM and the TGI (OVCAR-5 ovarian) was 21.3 µM. The GI50 (NCI-H522 lung) was 202 nM, the TGI (NCI-H522 lung) was 817 nM and the GI50 (NCI-H23 lung) was 742 nM. It also gave a TGI (NCI-H23 lung) of 5.19 µM, a GI50 (M14 melanoma) of 600 nM and a TGI (M14 melanoma) of 21.8 µM. For the same compound, the GI50 (OVCAR-3 ovarian) was 374 nM, the TGI (OVCAR-3 ovarian) was 1650 nM and the GI50 (UO-31 renal) was 2890 nM. It also gave a TGI (UO-31 renal) greater than 100 µM, a GI50 (NCI-H460 NSCLC) of 2120 nM and a TGI (NCI-H460 NSCLC) of 17.5 µM. For the same compound, the GI50 (LOX IMVI melanoma) was 321 nM, the TGI (LOX IMVI melanoma) was 1090 nM and the GI50 (HCT-15 colon) was 282 nM. The TGI (HCT-15 colon) was 1550 nM, the GI50 (MOLT-4 leukemia) was 616 nM and the TGI (MOLT-4 leukemia) was 1920 nM. It also gave a GI50 (RPMI-8226 leukemia) of 106 nM, a TGI (RPMI-8226 leukemia) of 316 nM and a GI50 (PC-3 prostate) of 1820 nM. For the same compound, the TGI (PC-3 prostate) was greater than 100 µM, the GI50 (HOP-62 NSCLC) was 415 nM and the TGI (HOP-62 NSCLC) was 16.5 µM. It also gave a GI50 (CAKI-1 renal) of 342 nM, a TGI (CAKI-1 renal) of 18.5 µM and a GI50 (SNB-75 CNS) of 487 nM. For the same compound, the TGI (SNB-75 CNS) was greater than 100 µM, the GI50 (NCI-H322M lung) was 1090 nM and the TGI (NCI-H322M lung) was 31.7 µM. The GI50 (NCI-H226 lung) was 646 nM, the TGI (NCI-H226 lung) was 5.74 µM and the GI50 (MDA-MB-231 breast) was 367 nM. The TGI (MDA-MB-231 breast) was 16.2 µM, the GI50 (SK-OV-3 ovarian) was 433 nM and the TGI (SK-OV-3 ovarian) was 3.61 µM.
